Measurements reported in patent EP4644383A1 (Jiangsu Yahong Meditech Co., Ltd., priority 2022, dated 2024).
Where two headings read alike, the source gives them in different places.

Tests used:
FGFR1 = biological target: T1, FGFR1 (Homo sapiens, UniProt P11362); assay: FGFR1 kinase activity inhibition assay (LanthaScreen TR-FRET); assay type: biochemical
T1 construct: cytoplasmic domain [398-822 (terminal) amino acids]; purchased Carna 08-133
Procedure, shortened: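 Emission ratio 520 nm/495 nm by TR-FRET after stopping reaction with 10 mM EDTA and 60 min incubation at 22°C. Inhibition normalized between no-enzyme (min) and DMSO (max) controls, then fitted to a four-parameter curve (Top, Bottom, HillSlope).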

FGFR3 = biological target: T2, FGFR3 (Homo sapiens, UniProt P22607); assay: FGFR3 kinase activity inhibition assay (LanthaScreen TR-FRET); assay type: biochemical; settings: for Selectivity (X) FGFR1/FGFR3: ratio of IC50 FGFR1/FGFR3, selectivity towards FGFR3; for Selectivity (X) FGFR2/FGFR3: ratio of IC50 FGFR2/FGFR3, selectivity towards FGFR3; for Selectivity (X) FGFR4/FGFR3: ratio of IC50 FGFR4/FGFR3, selectivity towards FGFR3
T2 construct: FGFR3's cytoplasmic domain [436-806 (terminal) amino acids]; purchased Carna 08-135
Procedure, shortened: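 Read-out is TR-FRET, with the 520 nm/495 nm emission ratio normalised to DMSO (max) and enzyme-free (min) controls. Enzyme was the FGFR3 cytoplasmic domain, residues 436-806. EDTA (10 mM) stopped the reaction, followed by 60 min at 22 °C before reading.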

[1] = system: Ba/F3-FGFR3-BAIAP2L1 cells; assay: Inhibition of proliferation activity of Ba/F3-FGFR3-BAIAP2L1 cells (CellTiter-Glo); assay type: cell-based; settings: for IC50: Ba/F3-FGFR3-BAIAP2L1 cells, 72 hours, CTG, read-out: IC50 (nM) Ba/F3-FGFR3-BAIAP2L1; for Selectivity (X) FGFR1/FGFR3: ratio of IC50 Ba/F3-BCR-FGFR1 to IC50 Ba/F3-FGFR3-BAIAP2L1
Protocol: The present experiment used CellTiter-Glo® Luminescent Cell Viability Assay (Promega: G7573) kit, which was a homogeneous cell viability detection method and determined the cell viability of cultured cells by quantifying ATP. • ① Ba/F3-BCR-FGFR1 or Ba/F3-FGFR3-BAIAP2L1 cells were cultured in 1640 complete medium (Gibco: 11879020) (10% FBS (Gibco: 10091-148)+1% Pen Strep (Gibco: 15140122)) under the condition of 37°C and 5% CO2. • (2) The cells in logarithmic growth phase were harvested and counted using a […]. The trypan blue exclusion method was used to detect cell viability to ensure the cell viability was above 90%. • ③ The cell density was adjusted using 1640 complete medium, and then, the cells were seeded into a 96-well cell culture plate at 90 µL/well with a total of 2000 cells. • ④ A 10-fold drug solution was prepared starting from a maximum drug concentration of 10 µM and 4-fold serially diluted into10 concentrations. […] The luminescence values were read to collect the data. • ⑩ The data were analyzed using XLFit excel plugin version 5.5.0.5, and fitted with non-linear S-curve regression to obtain the dose-response curves and thus calculate the IC50 values. Y = Bottom + (Top-Bottom)/((1+(IC50/X))^(∧) HillSlope [formula]
(§1) "Top" refers to the maximum response, "Bottom" refers to the minimum response, and "HillSlope" refers to the slope of the curve.
"Max" represents the average value of the cell control+DMSO, and "Min" represents the average value of the medium control+DMSO.

RT112-FGFR3-V555M cells = assay: Inhibition of proliferation activity of RT112-FGFR3-V555M cells (CellTiter-Glo); assay type: cell-based; settings: RT112-FGFR3-V555M cells, 72 hours, CTG; read-out: IC50 (nM) RT112-FGFR3-V555M
Protocol: The present experiment used CellTiter-Glo® Luminescent Cell Viability Assay (Promega: G7573) kit, which was a homogeneous cell viability detection method and determined the cell viability of cultured cells by quantifying ATP. • ① RT112-FGFR3-V555M cells were cultured in MEM complete medium (Gibco: 51200038) (10% FBS (Gibco: 10091-148)+1% Pen Strep (Gibco: 15140122)+1% NEAA (Gibco: 11140050)) under the condition of 37°C and 5% CO2. • (2) The cells in logarithmic growth phase were harvested and counted using a […]. The trypan blue exclusion method was used to detect cell viability to ensure the cell viability was above 90%. • ③ The cell density was adjusted using MEM complete medium, and then, the cells were seeded into a 96-well cell culture plate at 90 µL/well with a total of 5000 cells. • ④ The 96-well plate with the cells was placed under the condition of 37°C and 5% CO2 to be cultured for 24 hours. • ⑤ 24 hours later, a 10-fold drug solution was prepared starting from a maximum drug concentration of 10 µM and 4-fold serially diluted into10 concentrations. Then, 10 µL of each of the serially diluted compounds was transferred to the corresponding experimental wells of a 96-well cell plate, with two replicates for each drug concentration. • ⑥ The 96-well plate with the cells that had been treated with the drugs was placed under the condition of 37°C and 5% CO2 to be further cultured for 72 hours, and then analyzed by CTG. • ⑦ The CTG reagent was melted and the cell plate was equilibrated to room temperature for 30 minutes. • ⑧ 50 µL of the CTG solution was added to each well. • ⑨ The cell plate was shaken on an orbital shaker for 5 minutes to lyse the cells. • ⑩ The cell plate was placed at room temperature for 20 minutes to stabilize the luminescence signal. The luminescence values were read to collect the data. • ⑪ The data were analyzed using XLFit excel plugin version 5.5.0.5, and fitted with non-linear S-curve regression to obtain the dose-response curves and thus calculate the IC50 values. Y = Bottom + (Top-Bottom)/((1+(IC50/X))^(∧) HillSlope [formula]
as §1
"Max" represents the average value of the cell+DMSO control, and "Min" represents the average value of the medium control+DMSO.

[2] = FGFR1 kinase, TR-FRET, read-out: IC50 (nM) FGFR1
[3] = FGFR3 kinase, TR-FRET, read-out: IC50 (nM) FGFR3

T2 sequence (P22607 436-806): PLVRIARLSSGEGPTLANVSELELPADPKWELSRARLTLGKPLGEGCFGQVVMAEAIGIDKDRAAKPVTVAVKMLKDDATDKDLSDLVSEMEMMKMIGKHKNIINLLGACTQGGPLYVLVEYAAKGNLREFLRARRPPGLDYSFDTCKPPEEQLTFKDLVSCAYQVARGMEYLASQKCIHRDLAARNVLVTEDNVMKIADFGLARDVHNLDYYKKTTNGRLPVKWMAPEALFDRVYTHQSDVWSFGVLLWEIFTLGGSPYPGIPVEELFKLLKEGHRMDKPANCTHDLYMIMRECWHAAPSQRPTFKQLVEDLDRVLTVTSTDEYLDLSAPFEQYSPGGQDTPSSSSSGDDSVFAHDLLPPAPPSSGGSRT
T1 sequence (P11362 398-822): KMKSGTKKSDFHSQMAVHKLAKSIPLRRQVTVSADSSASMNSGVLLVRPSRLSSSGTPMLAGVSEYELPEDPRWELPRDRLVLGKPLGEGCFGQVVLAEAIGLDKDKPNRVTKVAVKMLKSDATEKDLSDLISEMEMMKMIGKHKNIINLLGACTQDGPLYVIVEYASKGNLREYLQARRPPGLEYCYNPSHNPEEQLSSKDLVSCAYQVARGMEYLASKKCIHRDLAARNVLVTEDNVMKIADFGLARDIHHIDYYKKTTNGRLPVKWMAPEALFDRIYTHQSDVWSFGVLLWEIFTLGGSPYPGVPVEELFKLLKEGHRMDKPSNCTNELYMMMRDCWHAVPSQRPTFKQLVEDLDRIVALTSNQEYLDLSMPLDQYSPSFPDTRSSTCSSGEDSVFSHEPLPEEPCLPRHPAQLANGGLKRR

## CC(Oc1cc2c(-c3cnn(C)c3)n[nH]c2cc1F)c1cc(Cl)cc2nccnc12 (stereo not drawn) [Example 227, 7-chloro-5-(1-((6-fluoro-3-(1-methyl-1H-pyrazol-4-yl)-1H-indazol-5-yl)oxy)ethyl)qu inoxaline]
FGFR1; [2]
  IC50: 1 to 10 nM
FGFR3; [3]
  IC50: < 1 nM
FGFR3
  Selectivity (X) FGFR1/FGFR3: A (A represents 1 ≤ multiple X<20)
[1]
  IC50: 3.1 nM
  Selectivity (X) FGFR1/FGFR3: 126 X
RT112-FGFR3-V555M cells
  IC50: 128 nM

## CC(Oc1ccc2[nH]nc(-c3cnn(C)c3)c2c1)c1c(C(F)F)ccc2ncccc12 (stereo not drawn) [Example 127, 6-(difluoromethyl)-5-(1-((3-(1-methyl-1H-pyrazol-4-yl)-1H-indazol-5-yl)oxy)ethyl)quinoline]
FGFR1; [2]
  IC50: > 100 nM
FGFR3; [3]
  IC50: < 1 nM
FGFR3
  Selectivity (X) FGFR1/FGFR3: C (C represents 50 ≤ multiple X<100)
  Selectivity (X) FGFR2/FGFR3: A (A represents 1 ≤ multiple X<20)
  Selectivity (X) FGFR4/FGFR3: C (C represents 50 ≤ multiple X<100)
[1]
  IC50: 4.8 nM
  Selectivity (X) FGFR1/FGFR3: 195 X
RT112-FGFR3-V555M cells
  IC50: 118 nM

## CC(=O)N1CC(n2cc(-c3n[nH]c4ccc(OC(C)c5cccc6nccnc56)cc34)cn2)C1 (stereo not drawn) [Example 218, 1-(3-(4-(5-(1-(quinoxalin-5-yl)ethoxy)-1H-indazol-3-yl)-1H-pyrazol-1-yl)azetidin-1-yl)ethan-1-one]
FGFR1; [2]
  IC50: 10 to 100 nM
FGFR3; [3]
  IC50: < 1 nM
FGFR3
  Selectivity (X) FGFR1/FGFR3: B (B represents 20 ≤ multiple X<50)
  Selectivity (X) FGFR2/FGFR3: A (A represents 1 ≤ multiple X<20)
  Selectivity (X) FGFR4/FGFR3: B (B represents 20 ≤ multiple X<50)
[1]
  IC50: 8.4 nM
  Selectivity (X) FGFR1/FGFR3: 53 X
RT112-FGFR3-V555M cells
  IC50: 64.7 nM

## Cc1cc2nccnc2c(C(C)Oc2ccc3[nH]nc(-c4cnn(C)c4)c3c2)n1 (stereo not drawn) [Example 183, 7-methyl-5-(1-((3-(1-methyl-1H-pyrazol-4-yl)-1H-indazol-5-yl)oxy)ethyl)pyridino [3,4-b]pyrazine]
FGFR1; [2]
  IC50: 10 to 100 nM
FGFR3; [3]
  IC50: < 1 nM
FGFR3
  Selectivity (X) FGFR1/FGFR3: B (B represents 20 ≤ multiple X<50)
  Selectivity (X) FGFR2/FGFR3: A (A represents 1 ≤ multiple X<20)
  Selectivity (X) FGFR4/FGFR3: B (B represents 20 ≤ multiple X<50)
[1]
  IC50: 0.4 nM
  Selectivity (X) FGFR1/FGFR3: 139 X
RT112-FGFR3-V555M cells
  IC50: 10.4 nM

## CC(Oc1ccc2[nH]nc(-c3cnn(C)c3)c2c1)c1cc(Cl)cc2nccnc12 (stereo not drawn) [Example 136, 7-chloro-5-(1-((3-(1-methyl-1H-pyrazol-4-yl)-1H-indazol-5-yl)oxy)ethyl)qu inoxaline]
FGFR1; [2]
  IC50: 10 to 100 nM
FGFR3; [3]
  IC50: < 1 nM
FGFR3
  Selectivity (X) FGFR1/FGFR3: B (B represents 20 ≤ multiple X<50)
  Selectivity (X) FGFR2/FGFR3: A (A represents 1 ≤ multiple X<20)
  Selectivity (X) FGFR4/FGFR3: C (C represents 50 ≤ multiple X<100)
[1]
  IC50: 3.4 nM
  Selectivity (X) FGFR1/FGFR3: 111 X
RT112-FGFR3-V555M cells
  IC50: 119 nM

## CC(Oc1ccc2[nH]nc(-c3cnn(C)c3)c2c1)c1nc(C(F)F)cc2nccnc12 (stereo not drawn) [Example 236, 7-(difluoromethyl)-5-(1-((3-(1-methyl-1H-pyrazol-4-yl)-1H-indazol-5-yl)oxy)ethyl)pyridino[3,4-b]pyrazine]
FGFR1; [2]
  IC50: 1 to 10 nM
FGFR3; [3]
  IC50: < 1 nM
FGFR3
  Selectivity (X) FGFR1/FGFR3: A (A represents 1 ≤ multiple X<20)
  Selectivity (X) FGFR2/FGFR3: A (A represents 1 ≤ multiple X<20)
  Selectivity (X) FGFR4/FGFR3: C (C represents 50 ≤ multiple X<100)
[1]
  IC50: 0.9 nM
  Selectivity (X) FGFR1/FGFR3: 182 X
RT112-FGFR3-V555M cells
  IC50: 38.9 nM

## [2H]C([2H])([2H])c1cc2nccnc2c(C(C)Oc2ccc3[nH]nc(-c4cnn(C)c4)c3c2)n1 (stereo not drawn) [Example 241]
FGFR1
  IC50: 1 to 10 nM
FGFR3
  IC50: < 1 nM
  Selectivity (X) FGFR1/FGFR3: B (B represents 20 ≤ multiple X<50)
  Selectivity (X) FGFR2/FGFR3: A (A represents 1 ≤ multiple X<20)
  Selectivity (X) FGFR4/FGFR3: A (A represents 1 ≤ multiple X<20)
[1]
  IC50: 0.8 nM
  Selectivity (X) FGFR1/FGFR3: 76 X
RT112-FGFR3-V555M cells
  IC50: 18.2 nM
